Measurements published in US20230049231A1 (priority 2019, published 2023).

Legend:
Kv1.3 potassium channel = target: T1, Kv1.3 potassium channel (Homo sapiens, UniProt P22001); test: Kv1.3 potassium channel blocker activity, automated whole-cell patch clamp (Patchliner); assay type: cell-based; conditions: Kv1.3 potassium channel, whole-cell patch clamp
T1 construct: expressed in transfected cells
How it was run: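 IC50 came from Hill-equation fits of peak and AUC currents from the final pulse at each concentration, normalized to compound-free control. Compounds applied consecutively at 30 nM to 100 μM (up to 0.3% DMSO) to Kv1.3-expressing CHO-K1 cells, P/4 leak subtraction. Pulses were +40 mV, 100 ms, from −90 mV holding, at 0.1 Hz on Patchliner.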

hERG channel = target: T2, hERG channel (Homo sapiens, UniProt Q12809); test: hERG electrophysiology, automated whole-cell patch clamp (Patchliner); assay type: cell-based; conditions: hERG channel, whole-cell patch clamp
T2 construct: expressed in transfected cells
T2 sequence (Q12809 whole entry): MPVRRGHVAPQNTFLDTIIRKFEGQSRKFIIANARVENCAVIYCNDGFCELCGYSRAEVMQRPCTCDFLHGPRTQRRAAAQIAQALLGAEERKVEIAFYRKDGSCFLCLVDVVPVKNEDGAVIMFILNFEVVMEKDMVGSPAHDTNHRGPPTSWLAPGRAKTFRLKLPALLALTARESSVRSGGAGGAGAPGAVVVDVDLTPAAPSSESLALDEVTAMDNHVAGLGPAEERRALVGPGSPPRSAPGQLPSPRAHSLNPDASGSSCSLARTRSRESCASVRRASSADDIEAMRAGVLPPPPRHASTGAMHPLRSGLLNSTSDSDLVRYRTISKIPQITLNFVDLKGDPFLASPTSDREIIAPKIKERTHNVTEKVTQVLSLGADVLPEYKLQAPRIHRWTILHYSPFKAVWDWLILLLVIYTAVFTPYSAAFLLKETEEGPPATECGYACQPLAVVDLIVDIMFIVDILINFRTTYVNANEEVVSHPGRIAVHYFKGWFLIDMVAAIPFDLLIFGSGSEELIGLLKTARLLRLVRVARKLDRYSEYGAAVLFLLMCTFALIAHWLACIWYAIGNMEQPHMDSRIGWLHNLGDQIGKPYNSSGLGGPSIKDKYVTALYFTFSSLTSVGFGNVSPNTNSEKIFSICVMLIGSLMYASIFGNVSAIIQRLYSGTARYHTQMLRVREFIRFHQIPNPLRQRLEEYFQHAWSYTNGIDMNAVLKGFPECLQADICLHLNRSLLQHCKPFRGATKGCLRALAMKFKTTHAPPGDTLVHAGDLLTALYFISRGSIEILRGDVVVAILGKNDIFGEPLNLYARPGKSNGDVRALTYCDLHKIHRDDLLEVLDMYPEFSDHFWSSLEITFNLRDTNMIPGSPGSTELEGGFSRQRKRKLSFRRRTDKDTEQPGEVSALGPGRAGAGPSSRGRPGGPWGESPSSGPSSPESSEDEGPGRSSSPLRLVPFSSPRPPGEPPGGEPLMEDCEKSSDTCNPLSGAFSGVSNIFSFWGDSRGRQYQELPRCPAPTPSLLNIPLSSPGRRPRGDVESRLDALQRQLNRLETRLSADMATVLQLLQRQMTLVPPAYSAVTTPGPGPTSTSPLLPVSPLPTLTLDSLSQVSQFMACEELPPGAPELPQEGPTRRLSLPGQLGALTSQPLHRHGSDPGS
Experimental: This assay is used to evaluate the disclosed compounds' inhibition activities against the hERG channel.
CHO-K1 cells stably expressing hERG were grown in Ham's F-12 Medium with glutamine containing 10% heat-inactivated FBS, 1% penicillin/streptomycin, hygromycin (100 μg/ml) and G418 (100 μg/ml). Cells were grown in culture flasks at 37° C. in a 5% CO2-humidified incubator.
The cells were bathed in an extracellular solution containing 140 mM NaCl, 4 mM KCl, 2 mM CaCl2), 1 mM MgCl2, 5 mM glucose, and 10 mM HEPES; pH adjusted to 7.4 with NaOH; 295-305 mOsm. The internal solution contained 50 mM KCl, 10 mM NaCl, 60 mM KF, 20 mM EGTA, and 10 mM HEPES; pH adjusted to 7.2 with KOH; 285 mOsm. All compounds were dissolved in DMSO at 30 mM. Compound stock solutions were freshly diluted with external solution to concentrations of 30 nM, 100 nM, 300 nM, 1 μM, 3 μM, 10 μM, 30 μM and 100 μM. The highest content of DMSO (0.3%) was present in 100 μM.
The voltage protocol (see Table 3) was designed to simulate voltage changes during a cardiac action potential with a 300 ms depolarization to +20 mV (analogous to the plateau phase of the cardiac action potential), a repolarization for 300 ms to −50 mV (inducing a tail current) and a final step to the holding potential of −80 mV. The pulse frequency was 0.3 Hz. Control (compound-free) and compound pulse trains for each compound concentration applied contained 70 pulses.
Whole-cell current recordings and compound application were enabled by means of an automated patch clamp platform Patchliner (Nanion). EPC 10 patch clamp amplifier (HEKA) along with Patchmaster software (HEKA Elektronik Dr. Schulze GmbH) was used for data acquisition. Data were sampled at 10 kHz without filtering. Increasing compound concentrations were applied consecutively to the same cell without washouts in between.
AUC and PEAK values were obtained with Patchmaster (HEKA Elektronik Dr. Schulze GmbH). To determine IC50 the last single pulse in the pulse train corresponding to a given compound concentration was used. Obtained AUC and PEAK values in the presence of compound were normalized to control values in the absence of compound. Using Origin (OridinLab), IC50 was derived from data fit to Hill equation: Icompound/Icontrol=(100-A)/(1+([compound]/IC50)nH)+A, where IC50 is the concentration at which current inhibition is half-maximal, [compound] is the applied compound concentration, A is the fraction of current that is not blocked and nH is the Hill coefficient.

T1 sequence (P22001 whole entry): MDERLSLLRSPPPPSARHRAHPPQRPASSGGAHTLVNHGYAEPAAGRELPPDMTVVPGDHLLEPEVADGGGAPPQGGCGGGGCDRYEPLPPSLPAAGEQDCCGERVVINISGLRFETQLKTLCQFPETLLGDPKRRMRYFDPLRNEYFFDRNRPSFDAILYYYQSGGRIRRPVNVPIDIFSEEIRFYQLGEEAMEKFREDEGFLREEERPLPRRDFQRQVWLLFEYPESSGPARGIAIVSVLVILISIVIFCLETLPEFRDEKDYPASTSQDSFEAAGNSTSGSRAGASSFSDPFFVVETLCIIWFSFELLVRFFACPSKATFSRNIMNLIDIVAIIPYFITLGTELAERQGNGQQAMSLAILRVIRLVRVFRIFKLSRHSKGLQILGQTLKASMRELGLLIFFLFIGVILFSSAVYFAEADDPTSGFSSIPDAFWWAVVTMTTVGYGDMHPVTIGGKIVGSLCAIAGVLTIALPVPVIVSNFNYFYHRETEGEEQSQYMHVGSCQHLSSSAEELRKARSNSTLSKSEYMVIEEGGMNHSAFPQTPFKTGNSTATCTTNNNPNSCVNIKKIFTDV

Row | Structure (SMILES) | IC50 (Kv1.3 potassium channel) [µM] | IC50 (hERG channel) [µM]
1 | COC[C@H](CO)N1CC(=O)N2C[C@@H](c3c(O)ccc(Cl)c3Cl)C[C@H]2C1 (single isomer, unassigned) [Compound 118] | < 1 | > 30
2 | C[C@@H](C1CNC1)N1CC(=O)N2C[C@@H](c3c(O)ccc(Cl)c3Cl)C[C@H]2C1 (single isomer, unassigned) [Compound 137] | < 1 | > 30
3 | N[C@H]1CC(=O)N2C[C@@H](c3c(O)ccc(Cl)c3Cl)C[C@H]2C1 (single isomer, unassigned) [Compound 189] | < 1 | > 30
4 | N[C@@H]1CC(=O)N2C[C@@H](c3c(O)ccc(Cl)c3Cl)C[C@H]2C1 (single isomer, unassigned) [Compound 190] | < 1 | > 30
5 | O=C1C[C@H](N2CC[C@@H](O)C2)C[C@@H]2C[C@H](c3c(O)ccc(Cl)c3Cl)CN12 (single isomer, unassigned) [Compound 191] | < 1 | < 30
6 | O=C1C[C@@H](N2CC[C@@H](O)C2)C[C@@H]2C[C@H](c3c(O)ccc(Cl)c3Cl)CN12 (single isomer, unassigned) [Compound 192] | < 1 | > 30
7 | O=C1C[C@H](N2CC[C@H](O)C2)C[C@@H]2C[C@H](c3c(O)ccc(Cl)c3Cl)CN12 (single isomer, unassigned) [Compound 193] | < 1 | > 30
8 | O=C1C[C@@H](N2CC[C@H](O)C2)C[C@@H]2C[C@H](c3c(O)ccc(Cl)c3Cl)CN12 (single isomer, unassigned) [Compound 194] | < 1 | > 30
9 | O=C1C[C@@H](N2CC(O)C2)C[C@@H]2C[C@H](c3c(O)ccc(Cl)c3Cl)CN12 (single isomer, unassigned) [Compound 196] | < 1 | > 30
10 | O=C1C[C@H](N2CC(O)C2)C[C@@H]2C[C@H](c3c(O)ccc(Cl)c3Cl)CN12 (single isomer, unassigned) [Compound 197] | < 1 | > 30
11 | CN[C@@H]1CC(=O)N2C[C@@H](c3c(O)ccc(Cl)c3Cl)C[C@H]2C1 (single isomer, unassigned) [Compound 198] | < 1 | > 30
12 | CN[C@H]1CC(=O)N2C[C@@H](c3c(O)ccc(Cl)c3Cl)C[C@H]2C1 (single isomer, unassigned) [Compound 199] | < 1 | > 30
13 | CN(C)[C@@H]1CC(=O)N2C[C@@H](c3c(O)ccc(Cl)c3Cl)C[C@H]2C1 (single isomer, unassigned) [Compound 200] | < 1 | < 10
14 | CN(C)[C@H]1CC(=O)N2C[C@@H](c3c(O)ccc(Cl)c3Cl)C[C@H]2C1 (single isomer, unassigned) [Compound 201] | < 1 | < 10
15 | O=C1C[C@@H](NCCO)C[C@@H]2C[C@H](c3c(O)ccc(Cl)c3Cl)CN12 (single isomer, unassigned) [Compound 202] | < 1 | > 30
16 | O=C1C[C@H](NCCO)C[C@@H]2C[C@H](c3c(O)ccc(Cl)c3Cl)CN12 (single isomer, unassigned) [Compound 203] | < 1 | > 30
17 | CN(CCO)[C@@H]1CC(=O)N2C[C@@H](c3c(O)ccc(Cl)c3Cl)C[C@H]2C1 (single isomer, unassigned) [Compound 204] | < 1 | > 30
18 | CN(CCO)[C@H]1CC(=O)N2C[C@@H](c3c(O)ccc(Cl)c3Cl)C[C@H]2C1 (single isomer, unassigned) [Compound 205] | < 1 | > 30
19 | O=C1CC(N2CCNCC2)C[C@@H]2C[C@H](c3c(O)ccc(Cl)c3Cl)CN12 (single isomer, unassigned) [Compound 207] | < 1 | > 30
20 | O=C1C[C@@H](c2cn[nH]c2)C[C@@H]2C[C@H](c3c(O)ccc(Cl)c3Cl)CN12 (single isomer, unassigned) [Compound 215] | < 1 | > 30

Row | Structure (SMILES) | IC50 (Kv1.3 potassium channel) [µM] | IC50 (hERG channel) [µM]
21 | O=C1C[C@H](c2cn[nH]c2)C[C@@H]2C[C@H](c3c(O)ccc(Cl)c3Cl)CN12 (single isomer, unassigned) [Compound 216] | < 1 | < 10
22 | NC[C@@]1(O)CC(=O)N2C[C@@H](c3c(O)ccc(Cl)c3Cl)C[C@H]2C1 (single isomer, unassigned) [Compound 218] | < 1 | > 30
23 | NC[C@]1(O)CC(=O)N2C[C@@H](c3c(O)ccc(Cl)c3Cl)C[C@H]2C1 (single isomer, unassigned) [Compound 219] | < 1 | > 30
24 | NC(=O)[C@H]1CC(=O)N2C[C@@H](c3c(O)ccc(Cl)c3Cl)C[C@H]2C1 (single isomer, unassigned) [Compound 231] | < 1 | > 30
25 | O=C(NCCO)[C@@H]1CC(=O)N2C[C@@H](c3c(O)ccc(Cl)c3Cl)C[C@H]2C1 (single isomer, unassigned) [Compound 234] | < 1 | > 30
26 | O=C(NC1CNC1)[C@H]1CC(=O)N2C[C@@H](c3c(O)ccc(Cl)c3Cl)C[C@H]2C1 (single isomer, unassigned) [Compound 235] | < 1 | > 30
27 | O=C(NC1CNC1)[C@@H]1CC(=O)N2C[C@@H](c3c(O)ccc(Cl)c3Cl)C[C@H]2C1 (single isomer, unassigned) [Compound 236] | < 1 | > 30
28 | O=C1C[C@@H](CO)C[C@@H]2C[C@H](c3c(O)ccc(Cl)c3Cl)CN12 (single isomer, unassigned) [Compound 237] | < 1 | > 30
29 | O=C1C[C@H](CO)C[C@@H]2C[C@H](c3c(O)ccc(Cl)c3Cl)CN12 (single isomer, unassigned) [Compound 238] | < 1 | > 30
30 | CNC[C@@H]1CC(=O)N2C[C@@H](c3c(O)ccc(Cl)c3Cl)C[C@H]2C1 (single isomer, unassigned) [Compound 239] | < 1 | > 30
31 | O=C1C[C@@H](CN2CC(O)C2)C[C@@H]2C[C@H](c3c(O)ccc(Cl)c3Cl)CN12 (single isomer, unassigned) [Compound 242] | < 1 | > 30
32 | O=C1C[C@H](CN2CC(O)C2)C[C@@H]2C[C@H](c3c(O)ccc(Cl)c3Cl)CN12 (single isomer, unassigned) [Compound 243] | < 1 | < 30
33 | N[C@H]1CC2C[C@H](c3c(O)ccc(Cl)c3Cl)CN2C1=O (single isomer, unassigned) [Compound 248] | < 1 | < 10
34 | O=C1O[C@@H](CO)[C@@H]2C[C@H](c3c(O)ccc(Cl)c3Cl)CN12 (single isomer, unassigned) [Compound 253] | < 1 | > 30
35 | O=C1O[C@H](CO)[C@@H]2C[C@H](c3c(O)ccc(Cl)c3Cl)CN12 (single isomer, unassigned) [Compound 254] | < 1 | > 30
36 | CC(C)(O)[C@@H]1OC(=O)N2C[C@@H](c3c(O)ccc(Cl)c3Cl)C[C@@H]12 (single isomer, unassigned) [Compound 256] | < 1 | > 30
37 | C[C@H](O)[C@H]1OC(=O)N2C[C@@H](c3c(O)ccc(Cl)c3Cl)C[C@@H]12 (single isomer, unassigned) [Compound 258] | < 1 | > 30
38 | C[C@@H](O)[C@@H]1OC(=O)N2C[C@@H](c3c(O)ccc(Cl)c3Cl)C[C@@H]12 (single isomer, unassigned) [Compound 259] | < 1 | > 30
39 | O=C1O[C@@H]([C@@H](O)CO)[C@@H]2C[C@H](c3c(O)ccc(Cl)c3Cl)CN12 (single isomer, unassigned) [Compound 260] | < 1 | > 30
40 | O=C1O[C@@H]([C@H](O)CO)[C@@H]2C[C@H](c3c(O)ccc(Cl)c3Cl)CN12 (single isomer, unassigned) [Compound 261] | < 1 | > 30
